# According to article PMC10665234, “Nutritional Supplementation and Enhanced Antioxidant Function by Dietary Intake of Selenoneine and Other Selenium Compounds in Red Seabream Pagrus major” (Marine Biotechnology (New York, N.y.), 2023):
# What was measured:
# [1] = test system: yellowtail; design: method as in Our unpublished research; conditions: ref Our unpublished research; cited from earlier work
# [2] = Total selenium concentrations in the tissues of red seabream after feeding selenium-supplemented dry pellet (fluorometric assay with 2,3-diamino-naphthalene); assay type: in vivo, red seabream Pagrus major
# Procedure: (§1) Red seabream fry (average body weight of 5.4 g) was obtained from private seed and seedling production company (Oita, Japan) and cultured for seven months up to average body weight of 250 g. Chemical composition of control diet was containing crude protein 50%; […]; Ca 2.3%; ash 16.0%; and phosphorus 1.5%. Each selenium-added diet was fed twice a day for 4 weeks in an amount of 1% of the average body weight. Body weight of fish in each tank was measured when fish were sampled and amount of diet was calculated according to the body weight of every sampling day. The added selenium concentrations in the diets were set in 0 ppm, 1 ppm, and 2 ppm selenium according to the previous study (Tohfuku et al. [2021]). After that, they were fed a commercial diet twice a day for 1 week. The test groups were the control group, the sodium selenite group (1 mg Se/kg feeding group and 2 mg Se/kg feeding group), the selenomethionine group (1 mg Se/kg feeding group and 2 mg Se/kg feeding group), and the selenoneine group (1 mg Se/kg feeding group and 2 mg Se/kg feeding group) were set. The number of fish raised was 15 from the start of rearing in each tank until the 2nd week, 10 from the 3rd to 4th week, and 5 in the 5th week. […] We reared red seabream by feeding of 1% dry pellet containing of sodium selenite, selenomethionine, or selenoneine of body weight twice a day for 4 weeks. After that, we replaced to 1% of commercial dry pellet of body weight twice a day for 1 week from the selenium supplementation. Average water temperature was 20.9 ℃ (19.0–23.9 ℃) and average dissolved oxygen was 7.41 mg/L. The body weight change of red seabream for 5 weeks is shown in Table S2.
# (§2) Red seabream was anesthetized by adding 2 mL of anesthetic (1/100 volume of 2-methylquinoline dissolved in ethanol) to 1 L of seawater. A small amount of an anticoagulant (heparin sodium dissolved in physiological saline; 800 units/mL) was placed in a syringe in advance, and blood was collected from the caudal peduncle of each fish. The collected blood was centrifuged at 5000 rpm for 5 min (4 °C), divided into a plasma fraction and a precipitated fraction, and stored at − 50 °C. The precipitated fraction was used for analysis as the blood cell fraction.
# Total selenium concentration was determined by fluorometric assay with 2,3-diamino-naphthalene, after digestion in 1.5 mL of nitric acid and perchloric acid (1:2 in volume) at 200–220 ℃ (Watkinson [1966]; Yamashita and Yamashita [2010]).
# [3] = test system: red seabream; assay: Oxidation-reduction potential (ORP) in white muscle; assay type: in vivo, red seabream Pagrus major; conditions: 2 weeks; 1 or 2 ppm in diet
# Procedure: ORP was measured with ORP electrode (9300, Horiba, Kyoto, […]). The electrode was pierced into muscle and pressed gently until the potential stabilized for 60 s.
# [4] = Uptake factor of selenoneine from feed (ratio of concentration in muscle or blood cells to feed); assay type: in vivo, red seabream Pagrus major; conditions: artificial feed containing selenoneine at 0.1–2 mg Se/kg
# Procedure: Uptake factor is defined as a ratio of selenoneine concentration in muscle or blood cells to those in feed, and is the same as the biomagnification factor (Yamada et al. [1994]). Thus, uptake factor is an indicator showing the degree of accumulation of selenoneine in muscle or blood cells by dietary intake of feed. The uptake factor was calculated by the following equation on the equilibrium period of the dietary exposure experiments:
# Uptake factor = ((Cen − Cb) / CF) × 10^–3where Cen is selenoneine concentration in muscle or blood cells of fish fed with selenoneine-contained feed (ng/kg), Cb is selenoneine concentration in muscle or blood cells of the control fish (ng/kg wet), and CF is the selenoneine concentration in the contained feed (μg/kg).
# [5] = Selenoneine concentration in white muscle and blood cell by HPLC-ICP-MS (82Se); assay type: in vivo, red seabream Pagrus major; conditions: for Selenoneine concentration, blood cell / Selenoneine concentration, white muscle: fish cultured for 4 weeks
# Procedure: as §1, §2
# Selenoneine was separated by chromatography using a Shodex GF-310 column (4.5 mm × 150 mm; Showa Denko, Tokyo, Japan) equilibrated with 100 mM ammonium formate buffer containing 0.1% (w/v) Igepal CA-630 (MP Biomedicals, CA, USA). The injection volume was at 10 μL. The mobile phase delivered at 0.5 mL/min isocratically. ^82Se was detected with high performance liquid chromatography inductively coupled plasma mass spectrometry (HPLC-ICP-MS; Agilent 1100 Series and Agilent 7500 Series, Agilent Technology) (Yamashita and Yamashita [2010]). During separation, selenoneine was eluted at a retention time of 200 s, and the selenium concentration was determined using selenoneine as a standard.
# [6] = 5 weeks (4 weeks supplementation, then 1 week commercial diet), diet 1 mg Se/kg added
# [7] = 5 weeks (4 weeks supplementation, then 1 week commercial diet), diet 2 mg Se/kg added
structure (smiles),measurement,setting,value
"C[N+](C)(C)[C@@H](Cc1cnc([Se-])[nH]1)C(=O)O [Selenoneine, 2-selenyl-Nα, Nα, Nα-trimethyl-L-histidine]",ORP after dietary intake,[1],reduced ORP and approached the ORP of wild fish
same,"Total selenium content, blood cell","[2]; 2 weeks, diet 1 mg Se/kg added",3.98 ± 1.00 mg Se/kg
same,"Total selenium content, blood cell","[2]; 2 weeks, diet 2 mg Se/kg added",9.28 ± 1.67 mg Se/kg
same,"Total selenium content, blood cell","[2]; 4 weeks, diet 1 mg Se/kg added",5.93 ± 1.00 mg Se/kg
same,"Total selenium content, blood cell","[2]; 4 weeks, diet 2 mg Se/kg added",9.94 ± 2.05 mg Se/kg
same,"Total selenium content, blood cell",[2]; [6],4.70 ± 0.53 mg Se/kg
same,"Total selenium content, blood cell",[2]; [7],9.10 ± 1.48 mg Se/kg
same,"Total selenium content, brain","[2]; 2 weeks, diet 1 mg Se/kg added",0.48 ± 0.02 mg Se/kg
same,"Total selenium content, brain","[2]; 2 weeks, diet 2 mg Se/kg added",0.50 ± 0.04 mg Se/kg
same,"Total selenium content, brain","[2]; 4 weeks, diet 1 mg Se/kg added",0.55 ± 0.06 mg Se/kg
same,"Total selenium content, brain","[2]; 4 weeks, diet 2 mg Se/kg added",0.56 ± 0.05 mg Se/kg
same,"Total selenium content, brain",[2]; [6],0.48 ± 0.09 mg Se/kg
same,"Total selenium content, brain",[2]; [7],0.47 ± 0.04 mg Se/kg
same,Tissues in which total selenium was accumulated compared with the control group,[2]; diet 1 mg Se/kg,"white muscle, kidney, spleen, hepatopancreas, brain, and blood cell"
same,Tissues in which total selenium was accumulated compared with the control group,[2]; diet 2 mg Se/kg,"white muscle, heart, kidney, spleen, hepatopancreas, brain, and blood cell"
same,"Total selenium content, heart","[2]; 2 weeks, diet 1 mg Se/kg added",1.11 ± 0.11 mg Se/kg
same,"Total selenium content, heart","[2]; 2 weeks, diet 2 mg Se/kg added",1.32 ± 0.18 mg Se/kg
same,"Total selenium content, heart","[2]; 4 weeks, diet 1 mg Se/kg added",1.16 ± 0.11 mg Se/kg
same,"Total selenium content, heart","[2]; 4 weeks, diet 2 mg Se/kg added",1.19 ± 0.09 mg Se/kg
same,"Total selenium content, heart",[2]; [6],1.09 ± 0.15 mg Se/kg
same,"Total selenium content, heart",[2]; [7],1.28 ± 0.29 mg Se/kg
same,"Total selenium content, hepatopancreas","[2]; 2 weeks, diet 1 mg Se/kg added",1.27 ± 0.18 mg Se/kg
same,"Total selenium content, hepatopancreas","[2]; 2 weeks, diet 2 mg Se/kg added",1.51 ± 0.26 mg Se/kg
same,"Total selenium content, hepatopancreas","[2]; 4 weeks, diet 1 mg Se/kg added",1.22 ± 0.14 mg Se/kg
same,"Total selenium content, hepatopancreas","[2]; 4 weeks, diet 2 mg Se/kg added",1.35 ± 0.18 mg Se/kg
same,"Total selenium content, hepatopancreas",[2]; [6],1.34 ± 0.26 mg Se/kg
same,"Total selenium content, hepatopancreas",[2]; [7],1.40 ± 0.25 mg Se/kg
same,"Total selenium content, kidney","[2]; 2 weeks, diet 1 mg Se/kg added",3.22 ± 0.18 mg Se/kg
same,"Total selenium content, kidney","[2]; 2 weeks, diet 2 mg Se/kg added",3.46 ± 0.43 mg Se/kg
same,"Total selenium content, kidney","[2]; 4 weeks, diet 1 mg Se/kg added",3.17 ± 0.40 mg Se/kg
same,"Total selenium content, kidney","[2]; 4 weeks, diet 2 mg Se/kg added",4.03 ± 0.72 mg Se/kg
same,"Total selenium content, kidney",[2]; [6],2.96 ± 0.32 mg Se/kg
same,"Total selenium content, kidney",[2]; [7],3.51 ± 0.49 mg Se/kg
same,"Total selenium content, spleen","[2]; 2 weeks, diet 1 mg Se/kg added",3.45 ± 0.56 mg Se/kg
same,"Total selenium content, spleen","[2]; 2 weeks, diet 2 mg Se/kg added",4.69 ± 0.79 mg Se/kg
same,"Total selenium content, spleen","[2]; 4 weeks, diet 1 mg Se/kg added",3.23 ± 0.37 mg Se/kg
same,"Total selenium content, spleen","[2]; 4 weeks, diet 2 mg Se/kg added",5.20 ± 1.01 mg Se/kg
same,"Total selenium content, spleen",[2]; [6],3.15 ± 0.83 mg Se/kg
same,"Total selenium content, spleen",[2]; [7],3.16 ± 0.68 mg Se/kg
same,"Total selenium content, white muscle","[2]; 2 weeks, diet 1 mg Se/kg added",0.39 ± 0.05 mg Se/kg
same,"Total selenium content, white muscle","[2]; 2 weeks, diet 2 mg Se/kg added",0.35 ± 0.04 mg Se/kg
same,"Total selenium content, white muscle","[2]; 4 weeks, diet 1 mg Se/kg added",0.40 ± 0.05 mg Se/kg
same,"Total selenium content, white muscle","[2]; 4 weeks, diet 2 mg Se/kg added",0.43 ± 0.04 mg Se/kg
same,"Total selenium content, white muscle",[2]; [6],0.38 ± 0.04 mg Se/kg
same,"Total selenium content, white muscle",[2]; [7],0.38 ± 0.03 mg Se/kg
same,ORP in white muscle compared to control,[3],reduced ORP
same,Uptake factor of selenoneine in the blood,[4]; blood (blood cells),4.0
same,Uptake factor of selenoneine in the white muscle,[4]; white muscle,0.0062
same,Selenoneine as share of total selenium in blood cell,"[5]; blood cell, 4 weeks",more than 63%
same,"Selenoneine concentration, blood cell","[5]; blood cell, diet 1 mg Se/kg added",4.72 ± 1.06 mg Se/kg
same,"Selenoneine concentration, blood cell","[5]; blood cell, diet 1 mg Se/kg added, listed as selenoneine",4.72 ± 1.06 mg Se/kg
same,"Selenoneine concentration, blood cell","[5]; blood cell, diet 2 mg Se/kg added",10.29 ± 3.14 mg Se/kg
same,"Selenoneine concentration, blood cell","[5]; blood cell, diet 2 mg Se/kg added, listed as selenoneine",10.29 ± 3.14 mg Se/kg
same,Selenoneine as share of selenium in white muscle,"[5]; white muscle, 4 weeks",4.6–7.0%
same,"Selenoneine concentration, white muscle","[5]; white muscle, diet 1 mg Se/kg added",0.025 ± 0.003 mg Se/kg
same,"Selenoneine concentration, white muscle","[5]; white muscle, diet 1 mg Se/kg added, listed as selenoneine",0.025 ± 0.003 mg Se/kg
same,"Selenoneine concentration, white muscle","[5]; white muscle, diet 2 mg Se/kg added",0.030 ± 0.007 mg Se/kg
same,"Selenoneine concentration, white muscle","[5]; white muscle, diet 2 mg Se/kg added, listed as selenoneine",0.030 ± 0.007 mg Se/kg
same,Selenoneine concentration in white muscle,"[5]; white muscle, selenoneine 1 mg Se/kg administration group",25.4 ± 3.2 µg Se/kg
same,Selenoneine concentration in white muscle,"[5]; white muscle, selenoneine 2 mg Se/kg administration group",30.0 ± 6.6 µg Se/kg
same,Ratio of selenium used in selenoneine in white muscle,"[5]; white muscle, selenoneine 2 ppm administration group",about 7.0%
